# Assay results from paper PMC7689096, “Cyclizing Painkillers: Development of Backbone-Cyclic TAPS Analogs” (Frontiers in Chemistry, 2020).
# Columns and labels:
# [1] = molecular target: T1, δ (DOP, OPRD2) opioid receptor (Mus musculus, UniProt P32300); test: DOP opioid receptor functional agonism in NG-10815 cells; type: cell-based, rat; details: At 10^−6 M, percent of control specific agonist response
# T1 construct: NG-10815 cells which express significant endogenous levels of δ opioid receptors; host or cells: NG-10815 (NG108-15) mouse N18TG2 neuroblastoma x rat C6-BU-1 glioma hybrid cells
# Protocol: (§1) Peptides were tested for μ (MOP, OPRM1) and δ (DOP, OPRD2) opioid receptor activation functional agonism and antagonism using CHO cells expressing human recombinant μ receptors and NG-10815 cells which express significant endogenous levels of δ opioid receptors. The cultures were incubated for 10 min at 37°C followed by impedance measurements of CHO cells and cAMP was assayed by the HTRF method using NG-10815 cells, according to CEREP standard assay protocols. The respective reference, non-peptide small molecules were tested concurrently with the TAPS analogs. The agonist compounds were: DPDPE (selective agonist of DOP receptor) and DAMGO (high MOP receptor specificity) and the antagonist compounds were: Naltrindole (selective DOP receptor antagonist) and CTOP (MOP receptor antagonist). […] The results are expressed as a percentage of respective control-specific response. […] These findings indicate that TAPS cyclic peptides are MOP selective full agonists. […] The cyclic TAPS peptide had lower activity than the linear parent TAPS peptide (90 ± 5%) – a finding that can be attributed to their restricted conformation relative to the flexible linear peptide conformation.
# Evaluation of the Agonist Activity of Compounds at the Rat delta2 Receptor Endogenously Expressed in NG-10815 Cells, Determined by Measuring Their Effects on Impedance Modulation Using the CellKey (CDS) Detection Method
# Cells are seeded onto 96-well plate coated with fibronectin at 2 × 10^5 cells/well in HBSS buffer (Invitrogen) + 20 mM HEPES (Invitrogen) with 0.1% BSA and allowed to equilibrate for 60 min at 37°C before the start of the experiment. Plates are placed onto the system and measurements are made at a temperature of 37°C. […] Impedance measurements are monitored for 10 min after ligand addition. The standard reference agonist is DPDPE, which is tested in each experiment at several concentrations to generate a concentration-response curve from which its EC50 value is calculated.
# The respective reference, non-peptide small molecules were tested concurrently with the TAPS analogs; Agonist compounds DPDPE ([D-Pen2,D-Pen5]enkephalin), selective agonist of DOP receptor at 2 × 10^−9 M and DAMGO ([D-Ala2, N-MePhe4, Gly-ol] enkephalin), high MOP specificity at 2.5 × 10^−9 M; Antagonist compounds: naltrindole 7-(cyclopropylmethyl)-6,7-dehydro-4,5α-epoxy-3,14-dihydroxy-6,7-2′,3′-indolomorphinan hydrochloride, selective DOP antagonist, 5 × 10^−10 M and CTOP (D-Phe-Cys-Tyr-D-Trp-Orn-Thr-Pen-Thr-NH2), MOP antagonist at 3.4 × 10^−7 M. Depending on the assay volume and solvent tolerance, the stock solutions were diluted to [100×], [333×] or [1,000×] in 100% DMEM solvent, then either added directly or further diluted to [10×] or [5×] in H2O or Hank's balanced salt solution (HBSS) before addition to the assay well (final solvent concentration kept constant). The cultures were incubated for 10 min at 37°C followed by impedance measurements using cellular dielectric spectroscopy of CHO cells and cAMP was assayed by homogeneous time resolved fluorescence (HTRF) method using NG-10815 cells, according to CEREP standard assay protocols (https://euroscreenfast.com/assays/opioid-orl1-camp-fast-0360c; https://euroscreenfast.com/assays/opioid-op1-delta-camp-fast-0379c). […]
# [2] = molecular target: T1, δ (DOP, OPRD2) opioid receptor; test: DOP opioid receptor functional antagonism in NG-10815 cells; type: cell-based, rat; details: Between 10^−9-10^−6 M, percent inhibition of control specific agonist response
# Protocol: as §1
# The respective reference, non-peptide small molecules were tested concurrently with the TAPS analogs; Agonist compounds DPDPE ([D-Pen2,D-Pen5]enkephalin), selective agonist of DOP receptor at 2 × 10^−9 M and DAMGO ([D-Ala2, N-MePhe4, Gly-ol] enkephalin), high MOP specificity at 2.5 × 10^−9 M; Antagonist compounds: naltrindole 7-(cyclopropylmethyl)-6,7-dehydro-4,5α-epoxy-3,14-dihydroxy-6,7-2′,3′-indolomorphinan hydrochloride, selective DOP antagonist, 5 × 10^−10 M and CTOP (D-Phe-Cys-Tyr-D-Trp-Orn-Thr-Pen-Thr-NH2), MOP antagonist at 3.4 × 10^−7 M. Depending on the assay volume and solvent tolerance, the stock solutions were diluted to [100×], [333×] or [1,000×] in 100% DMEM solvent, then either added directly or further diluted to [10×] or [5×] in H2O or Hank's balanced salt solution (HBSS) before addition to the assay well (final solvent concentration kept constant). The cultures were incubated for 10 min at 37°C followed by impedance measurements using cellular dielectric spectroscopy of CHO cells and cAMP was assayed by homogeneous time resolved fluorescence (HTRF) method using NG-10815 cells, according to CEREP standard assay protocols (https://euroscreenfast.com/assays/opioid-orl1-camp-fast-0360c; https://euroscreenfast.com/assays/opioid-op1-delta-camp-fast-0379c). The results (mean of three experiments) are expressed as a percent of control specific agonist response [(measured TAPS specific response/control specific agonist response) × 100] and as a percent inhibition of control specific agonist response [100 – (measured TAPS specific response/control specific agonist response) × 100] obtained in the presence of the TAPS compounds. Results showing a stimulation or an inhibition lower than 25% were considered not significant and mostly attributable to variability of the signal around the control level. Results showing a stimulation or an inhibition higher than 50% were considered to represent significant effects of the TAPS compounds.
# [3] = tested on: mice; test: Mouse tail flick test (analgesia); type: in vivo
# Protocol: Following the preliminary results showing the in vitro agonist effect of TAPS c(2-6) in activating the μ-opioid receptor, the activity of TAPS c(2-6) in inducing analgesia in vivo was studied utilizing the mouse tail flick model. In this model, the mouse is exposed to local pain induced by an infrared light beam at the tail of the animal, and the time it takes for the animal to react to the pain, i.e., flick its tail, termed the “Latency time to tail flick,” is recorded. The treatment groups received either 5 or 15 mg/kg of TAPS c(2-6) dissolved in PBS. These were compared to animals receiving morphine (5 mg/kg) as a positive control or vehicle (PBS) as a negative control (Figure 9).
# For the assessment of analgesia induced by TAPS c(2-6), the mouse tail-flick model was used. […] Animals were placed upon the TF instrument surface (Ugo Basile S.R.L) and held in place. The tail was placed straight back over an infrared light source. The heat source and timer were turned on and automatically switched off when the mouse flicked its tail away from the heat source. The time it took for the animal to flick its tail was measured and results were recorded as latency time to TF. […] Prior to TF measurement, assessment of possible locomotor side-effects via the Open-Field model was performed, as will be described in the next section TAPS c(2-6) Adverse Effect Assessment- the Open-Field Test.
# [4] = Caco-2 permeability assay
# [5] = tested on: mice; test: Mouse open field test (locomotor adverse effect)
# Protocol: In the mouse open field test (OF test), the distance and speed the animal moves over a 5-min time period is recorded, giving an indication as to whether a medication administered affected its locomotor activity. TAPS c(2-6) (5 or 15 mg/kg) was administered via IP administration and compared to morphine (5 mg/kg) and vehicle (PBS).
# Male ICR mice (Harlan, Israel) 7 weeks of age (25–27) were used for all pharmacodynamic experiments after 5-day acclimation to laboratory conditions. Animals were allowed free access to food (standard commercial, sterile rodent diet) and water throughout the experiments and kept in automatically controlled environmental conditions for temperature and humidity levels in a 12-h dark-light cycle.
# Animals were placed in the OF apparatus for a period of 5 min. The apparatus utilizes computerized monitoring which measures the speed and distance the animal walks during the measurement period. […] Baseline measurements were taken 1 day before initiation of the experiments and again at 0.5, 1.5, 3, and 5 h post injection.
# T1 sequence (P32300 whole entry): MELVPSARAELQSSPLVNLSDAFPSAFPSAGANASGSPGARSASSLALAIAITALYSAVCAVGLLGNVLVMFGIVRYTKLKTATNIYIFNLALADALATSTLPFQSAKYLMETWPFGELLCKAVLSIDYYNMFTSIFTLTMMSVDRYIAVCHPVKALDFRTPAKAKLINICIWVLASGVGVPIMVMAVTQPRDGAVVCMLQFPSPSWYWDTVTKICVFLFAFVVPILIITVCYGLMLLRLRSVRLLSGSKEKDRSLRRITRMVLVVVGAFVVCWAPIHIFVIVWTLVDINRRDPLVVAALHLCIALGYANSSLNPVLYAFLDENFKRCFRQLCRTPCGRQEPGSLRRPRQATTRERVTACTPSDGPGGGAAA
smiles,measurement,setting,value
N=C(N)NCCC[C@@H]1C(=O)N[C@@H](Cc2ccccc2)C(=O)N(CC(N)=O)CCNC(=O)NCCCCCCN1C(=O)[C@@H](N)Cc1ccc(O)cc1 [TAPS c(2-6)],DOP agonist (%),[1],11%
same,DOP antagonist (%),[2],6%
same,analgesia (latency time to tail flick),"[3]; 5 mg/kg IP, compared to PBS",induced analgesia
same,analgesia (latency time to tail flick),"[3]; 15 mg/kg IP, compared to morphine 5 mg/kg",comparative in strength and duration to that induced by morphine
same,duration of analgesia,[3]; higher dosage 15 mg/kg IP,at least 5 h
same,Papp,[4],11 ×10⁻⁶ cm/s
same,Papp A→B,[4],0.038 ×10⁻⁶ cm/s
same,Papp B→A,[4],0.05 ×10⁻⁶ cm/s
same,locomotor effect (distance and speed of movement over 5 min),[5]; 5 mg/kg IP,no locomotor effect
same,locomotor effect (distance and speed of movement over 5 min),[5]; 15 mg/kg IP,no locomotor effect
